In patent US20230151003A1, “COMPOUNDS AND METHODS OF USE” (Exelixis, Inc., priority 2020, published 2023):
pIC50: −log10 of the molar value. Counter-ions that a name gives are not always drawn.

Legend:
KDR = KDR (Homo sapiens, UniProt P35968); test: KDR autophosphorylation ELISA in HUVEC cells; format: cell-based; set-up: endogenous in cells; host or cells: HUVEC (Lonza #C2519A); conditions: Table 3 Cellular Activities, VEGF165-stimulated, phospho-KDR ELISA
Outline: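 Read-out: phospho-KDR ELISA on cell lysates, quantified against a phospho-KDR standard, normalised to VEGF-stimulated DMSO (100%) and unstimulated (0%) wells, IC50 by 4-parameter fit. Cells were 24 h serum-starved HUVEC given compound for 1 h, then 100 ng/mL VEGF165 for 5 min.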

Mer = biological target: T1, Mer (Homo sapiens, UniProt Q12866); test: Mer autophosphorylation ELISA in transient transfected 293A cells; format: cell-based; conditions: Table 3 Cellular Activities; MERTK-transfected 293A cells, phospho-Mer ELISA
T1 construct: host or cells: 293A cells (Thermo Fisher #R70507)
T1 sequence (Q12866 21-999): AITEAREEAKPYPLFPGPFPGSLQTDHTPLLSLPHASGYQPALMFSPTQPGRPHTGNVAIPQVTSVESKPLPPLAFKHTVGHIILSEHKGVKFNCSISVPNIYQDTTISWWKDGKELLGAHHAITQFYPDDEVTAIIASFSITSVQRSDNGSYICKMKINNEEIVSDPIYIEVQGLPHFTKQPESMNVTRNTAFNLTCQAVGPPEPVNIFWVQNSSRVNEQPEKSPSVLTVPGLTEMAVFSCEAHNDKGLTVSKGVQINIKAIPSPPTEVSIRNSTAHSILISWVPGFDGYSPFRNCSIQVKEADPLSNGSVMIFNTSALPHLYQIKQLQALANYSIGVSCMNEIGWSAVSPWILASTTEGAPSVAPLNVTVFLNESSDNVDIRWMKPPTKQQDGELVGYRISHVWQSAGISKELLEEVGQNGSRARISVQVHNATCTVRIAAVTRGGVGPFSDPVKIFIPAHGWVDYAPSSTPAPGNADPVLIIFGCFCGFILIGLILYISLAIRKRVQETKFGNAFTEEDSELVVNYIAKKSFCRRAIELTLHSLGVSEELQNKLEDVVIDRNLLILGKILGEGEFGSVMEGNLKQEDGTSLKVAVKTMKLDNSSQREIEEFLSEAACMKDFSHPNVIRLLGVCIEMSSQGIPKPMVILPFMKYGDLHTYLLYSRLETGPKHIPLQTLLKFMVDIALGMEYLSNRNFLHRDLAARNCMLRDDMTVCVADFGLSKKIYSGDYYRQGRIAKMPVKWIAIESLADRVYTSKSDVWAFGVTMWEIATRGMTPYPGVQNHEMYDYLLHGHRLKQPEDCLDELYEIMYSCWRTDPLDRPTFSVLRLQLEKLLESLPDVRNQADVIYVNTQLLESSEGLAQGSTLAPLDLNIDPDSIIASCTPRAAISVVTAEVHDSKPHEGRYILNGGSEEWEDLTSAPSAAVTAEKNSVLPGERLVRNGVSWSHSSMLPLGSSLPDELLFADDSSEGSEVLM
Outline: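 293A cells transiently transfected with human MERTK DNA, replated after 24 h, then treated 1 h with 8-point compound dilutions in serum-free medium (0.3% DMSO). Lysates assayed by phospho-Mer sandwich ELISA against phospho-Mer standard; DMSO = 100%, reference inhibitor = 0% activity; IC50 by 4-parameter logistic fit.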

Chain of KDR (P35968 20-1356): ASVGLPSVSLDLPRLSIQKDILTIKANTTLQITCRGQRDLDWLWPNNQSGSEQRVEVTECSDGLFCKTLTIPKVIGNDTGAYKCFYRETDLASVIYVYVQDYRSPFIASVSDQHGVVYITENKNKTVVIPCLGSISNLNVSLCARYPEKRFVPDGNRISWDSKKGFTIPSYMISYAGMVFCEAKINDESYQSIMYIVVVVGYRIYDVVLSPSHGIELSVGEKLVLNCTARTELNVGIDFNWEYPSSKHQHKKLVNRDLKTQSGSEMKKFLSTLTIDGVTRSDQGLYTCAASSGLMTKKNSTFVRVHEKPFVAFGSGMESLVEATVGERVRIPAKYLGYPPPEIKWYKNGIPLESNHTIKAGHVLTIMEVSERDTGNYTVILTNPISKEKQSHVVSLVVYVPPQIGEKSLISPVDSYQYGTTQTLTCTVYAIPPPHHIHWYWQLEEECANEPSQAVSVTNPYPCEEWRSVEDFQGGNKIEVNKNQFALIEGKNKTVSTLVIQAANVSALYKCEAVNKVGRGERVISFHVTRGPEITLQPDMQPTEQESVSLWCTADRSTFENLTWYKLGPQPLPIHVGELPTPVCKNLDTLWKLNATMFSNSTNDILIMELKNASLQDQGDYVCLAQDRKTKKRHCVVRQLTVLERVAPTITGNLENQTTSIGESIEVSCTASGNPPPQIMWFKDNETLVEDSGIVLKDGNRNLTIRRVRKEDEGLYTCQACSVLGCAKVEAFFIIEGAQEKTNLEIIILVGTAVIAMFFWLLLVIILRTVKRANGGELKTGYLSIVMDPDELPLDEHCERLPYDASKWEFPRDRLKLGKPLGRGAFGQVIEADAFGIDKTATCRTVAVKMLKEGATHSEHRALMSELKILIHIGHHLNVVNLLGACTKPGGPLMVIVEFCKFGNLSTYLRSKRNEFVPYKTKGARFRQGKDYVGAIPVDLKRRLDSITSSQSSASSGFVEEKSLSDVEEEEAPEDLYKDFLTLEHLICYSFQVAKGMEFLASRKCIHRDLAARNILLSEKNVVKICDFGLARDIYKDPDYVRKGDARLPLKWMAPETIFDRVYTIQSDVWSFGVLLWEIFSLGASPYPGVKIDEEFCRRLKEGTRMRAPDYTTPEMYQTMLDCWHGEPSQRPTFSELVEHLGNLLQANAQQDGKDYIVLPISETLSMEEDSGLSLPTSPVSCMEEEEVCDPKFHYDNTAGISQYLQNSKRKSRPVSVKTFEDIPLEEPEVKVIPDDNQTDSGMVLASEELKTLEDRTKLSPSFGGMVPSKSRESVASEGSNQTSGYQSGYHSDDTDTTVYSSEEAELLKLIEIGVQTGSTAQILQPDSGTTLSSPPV

| Compound | pIC50 (KDR) | pIC50 (Mer) |
| --- | --- | --- |
| COc1cc2nccc(Oc3ccc(NC(=O)c4cccn(-c5ccc(F)cn5)c4=O)cc3F)c2nc1OC [Compound 42, N-[4-[(6,7-Dimethoxy-1,5-naphthyridin-4-yl)oxy]-3-fluorophenyl]-1-(5-fluoropyridin-2-yl)-2-oxopyridine-3-carboxamide] | ≥ 7.00 | ≥ 7.00 |
| Cc1ccc(C(=O)Nc2ccc(Oc3ccnc4cnc(Cl)cc34)c(F)c2)c(=O)n1-c1ccc(F)cn1 [Compound 54A, N-[4-[(6-Chloro-1,7-naphthyridin-4-yl)oxy]-3-fluorophenyl]-1-(5-fluoropyridin-2-yl)-6-methyl-2-oxopyridine-3-carboxamide] | 6.52 to 7.00 | ≥ 7.00 |
| COc1cc2nccc(Oc3ccc(NC(=O)c4c(C)ncc(-c5ccc(F)cn5)c4O)cc3F)c2nc1OC [Compound 68, N-[4-[(6,7-Dimethoxy-1,5-naphthyridin-4-yl)oxy]-3-fluorophenyl]-5-(5-fluoropyridin-2-yl)-4-hydroxy-2-methylpyridine-3-carboxamide] | ≥ 7.00 | ≥ 7.00 |
| COc1cnc2c(Oc3ccc(NC(=O)c4c(C)nc(C)c(-c5ccc(F)cn5)c4O)cc3F)ccnc2c1 [Compound 217, N-[3-Fluoro-4-[(7-methoxy-1,5-naphthyridin-4-yl)oxy]phenyl]-5-(5-fluoropyridin-2-yl)-4-hydroxy-2,6-dimethylpyridine-3-carboxamide] | ≥ 7.00 | ≥ 7.00 |
| COc1cc2nccc(Oc3ccc(NC(=O)c4cc(C(C)=O)c(C)n(-c5ccc(F)cn5)c4=O)cc3F)c2nc1OC [Compound 59, 5-Acetyl-N-[4-[(6,7-dimethoxy-1,5-naphthyridin-4-yl)oxy]-3-fluorophenyl]-1-(5-fluoropyridin-2-yl)-6-methyl-2-oxopyridine-3-carboxamide] | 6.52 to 7.00 | ≥ 7.00 |
| COc1cc2nccc(Oc3ccc(NC(=O)c4c(C)ccn(-c5ccc(F)cn5)c4=O)cc3F)c2nc1OC [Compound 41, N-[4-[(6,7-Dimethoxy-1,5-naphthyridin-4-yl)oxy]-3-fluorophenyl]-1-(5-fluoropyridin-2-yl)-4-methyl-2-oxopyridine-3-carboxamide] | ≥ 7.00 | ≥ 7.00 |
| COc1cc2nccc(Oc3ccc(NC(=O)c4cn(C)c(C)c(-c5ccc(F)cn5)c4=O)cc3)c2nc1OC [Compound 86, N-[4-[(6,7-Dimethoxy-1,5-naphthyridin-4-yl)oxy]phenyl]-5-(5-fluoropyridin-2-yl)-1,6-dimethyl-4-oxopyridine-3-carboxamide] | 6.00 to 6.52 | ≥ 7.00 |
| COc1cc2nccc(Oc3ccc(NC(=O)c4nnc(C)c(-c5ccc(F)cn5)c4OC)cc3F)c2nc1OC [Compound 215, N-[4-[(6,7-Dimethoxy-1,5-naphthyridin-4-yl)oxy]-3-fluorophenyl]-5-(5-fluoropyridin-2-yl)-4-methoxy-6-methylpyridazine-3-carboxamide] | 6.00 to 6.52 | ≥ 7.00 |
| COc1cc2nccc(Oc3ccc(NC(=O)c4ccc(C)n(-c5ccncc5F)c4=O)cc3F)c2nc1OC [Compound 220, N-[4-[(6,7-Dimethoxy-1,5-naphthyridin-4-yl)oxy]-3-fluorophenyl]-1-(3-fluoropyridin-4-yl)-6-methyl-2-oxopyridine-3-carboxamide] | ≥ 7.00 | ≥ 7.00 |
| COc1ccc2nccc(Oc3ccc(NC(=O)c4ccc(C)n(-c5ccc(F)cn5)c4=O)cc3F)c2c1 [Compound 49, N-[3-Fluoro-4-(6-methoxyquinolin-4-yl)oxyphenyl]-1-(5-fluoropyridin-2-yl)-6-methyl-2-oxopyridine-3-carboxamide] | ≥ 7.00 | ≥ 7.00 |

Further lines, results first:

| pIC50 (KDR) | pIC50 (Mer) | Compound |
| --- | --- | --- |
| 6.00 to 6.52 | ≥ 7.00 | COc1cc2nccc(Oc3ccc(NC(=O)c4cnc(C)c(-c5ccco5)n4)cc3F)c2nc1OC [Compound 269, N-[4-[(6,7-Dimethoxy-1,5-naphthyridin-4-yl)oxy]-3-fluorophenyl]-6-(furan-2-yl)-5-methylpyrazine-2-carboxamide] |
| 6.00 to 6.52 | 6.00 to 6.52 | COc1cnc2c(Oc3ccc(NC(=O)c4cc(C(C)=O)c(C)n(-c5ccco5)c4=O)cc3F)ccnc2c1 [Compound 238, 5-Acetyl-N-[3-fluoro-4-[(7-methoxy-1,5-naphthyridin-4-yl)oxy]phenyl]-1-(furan-2-yl)-6-methyl-2-oxopyridine-3-carboxamide] |
| 6.52 to 7.00 | ≥ 7.00 | COc1cc2nccc(Oc3ccc(NC(=O)c4cccn(-c5cc[n+]([O-])cc5)c4=O)cc3F)c2nc1OC [Compound 247, N-[4-[(6,7-Dimethoxy-1,5-naphthyridin-4-yl)oxy]-3-fluorophenyl]-1-(1-oxidopyridin-1-ium-4-yl)-2-oxopyridine-3-carboxamide hydrochloride] |
| 6.52 to 7.00 | ≥ 7.00 | CCOc1ccn(-c2ccc(F)cn2)c(=O)c1C(=O)Nc1ccc(Oc2ccnc3cc(OC)c(OC)nc23)c(F)c1 [Compound 243, N-[4-[(6,7-dimethoxy-1,5-naphthyridin-4-yl)oxy]-3-fluorophenyl]-4-ethoxy-1-(5-fluoropyridin-2-yl)-2-oxopyridine-3-carboxamide] |
| 6.00 to 6.52 | 6.00 to 6.52 | COc1cc2nccc(Oc3ccc(NC(=O)c4cccn(-c5ccnc(O)c5)c4=O)cc3F)c2nc1OC [Compound 248, N-[4-[(6,7-Dimethoxy-1,5-naphthyridin-4-yl)oxy]-3-fluorophenyl]-1-(2-hydroxypyridin-4-yl)-2-oxopyridine-3-carboxamide hydrochloride] |
| 6.00 to 6.52 | ≥ 7.00 | COc1cnc2c(Oc3ccc(NC(=O)c4cn(CCF)c(C)c(-c5cc(C)cs5)c4=O)cc3F)ccnc2c1 [Compound 328, 1-(2-Fluoroethyl)-N-[3-fluoro-4-[(7-methoxy-1,5-naphthyridin-4-yl)oxy]phenyl]-6-methyl-5-(4-methylthiophen-2-yl)-4-oxopyridine-3-carboxamide] |
